Source: US20250277012A1 (Protagonist Therapeutics, Inc., priority 2021, published 2025)
Like-named read-outs stand apart in the source and are kept apart here. Starred links: 1 amine or outer side, 2 acyl side, 3 side chain; linkers in the order of their positions; H or OH if unused. Positions of bridges follow the written chain, without caps; N, C: chain ends. Non-standard residues stand in square brackets, D forms with d. Residues, ends and D or L forms follow the SMILES beside them. Groups on a side chain read outwards from the residue. *: point of attachment. X1 = C[N+](C)(CCNC(=O)CCCCCCCCCCCCCCCCC(=O)O)CC(=O)*; Nva(5-morpholino) = N[C@@H](CCCN1CCOCC1)C(=O)O; C18 diacid = O=C(O)CCCCCCCCCCCCCCCCC(=O)*; Dip = N[C@H](C(=O)O)C(c1ccccc1)c1ccccc1; Phenylacetyl(4-F) = O=C(Cc1ccc(F)cc1)*; X6 = O=C([C@H](CC1N=NN=N1)N[*:1])[*:2]; Ethylenediamine = C(CN[*:2])N[*:1]; Palmitoyl = CCCCCCCCCCCCCCCC(=O)*; NMeF = CN[C@@H](Cc1ccccc1)C(=O)O; NMeI = CC[C@H](C)[C@H](NC)C(=O)O; dNMeF = CN[C@H](Cc1ccccc1)C(=O)O; β3hF = N[C@H](CC(=O)O)Cc1ccccc1; NMeK = CN[C@@H](CCCCN)C(=O)O; Isovaleryl = CC(C)CC(=O)*; Dap = NC[C@H](N)C(=O)O; AEEA = NCCOCCOCC(=O)O; Ahx = NCCCCCC(=O)O

Columns and labels:
[1] = biological target: T1, ferroportin (Homo sapiens, UniProt Q9NP59); test: T47D cell-based ferroportin internalization assay in presence of mouse serum albumin (MSA); parameters: a human breast carcinoma adherent cell line which endogenously expresses ferroportin; host or cells: T47D
T1 sequence (Q9NP59 1-571): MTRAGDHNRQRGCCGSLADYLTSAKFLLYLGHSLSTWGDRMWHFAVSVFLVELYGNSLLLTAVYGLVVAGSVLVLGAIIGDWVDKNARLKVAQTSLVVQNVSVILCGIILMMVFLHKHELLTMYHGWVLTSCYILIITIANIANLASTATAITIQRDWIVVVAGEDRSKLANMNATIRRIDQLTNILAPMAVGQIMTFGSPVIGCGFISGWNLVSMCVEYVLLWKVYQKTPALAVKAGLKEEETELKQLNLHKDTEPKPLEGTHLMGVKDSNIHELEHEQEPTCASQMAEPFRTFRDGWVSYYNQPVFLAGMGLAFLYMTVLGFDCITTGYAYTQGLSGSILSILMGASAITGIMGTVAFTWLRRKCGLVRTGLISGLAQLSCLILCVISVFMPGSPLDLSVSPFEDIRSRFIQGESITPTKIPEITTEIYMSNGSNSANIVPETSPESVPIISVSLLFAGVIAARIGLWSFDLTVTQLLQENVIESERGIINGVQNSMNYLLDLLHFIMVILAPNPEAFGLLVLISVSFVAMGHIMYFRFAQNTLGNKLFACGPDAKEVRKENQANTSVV
How it was run: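 Peptide potency for inducing ferroportin internalization was measured in T47D cells in the presence of serum albumin. Cells grown in RPMI with fetal bovine serum were seeded in 96-well plates at 80-100 k cells per well in 100 ul and rested overnight. Dilution series of test peptides were preincubated 30 min at room temperature, then added to the cells after the medium was aspirated.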

[2] = biological target: T1, ferroportin; test: FPN activity assay: ferroportin-GFP internalization/degradation in HEK293 cells; format: cell-based; parameters: expressed in transfected cells; conditions: read-out: FPN IC50
Experimental: Following internalization, the ferroporin protein is degraded.
A retro inverse peptide is a peptide with a reversed sequence in all D amino acids. An example is that Hy-Glu-Thr-His-NH2 becomes Hy-DHis-DThr-DGlu-NH2. The EC50 of these reference compounds for ferroportin internalization/degradation was determined according to the FPN activity assay described above. These peptides served as control standards.

[3] = T47D internalization assay in presence of mouse serum albumin (MSA), Table 6E
[4] = ferroportin-GFP internalization/degradation, HEK293 cells, Table 6E
[5] = Table 6E, T47D internalization assay with MSA
[6] = Table 6E, ferroportin-GFP internalization/degradation, at least 18 hours incubation

Row | Compound | IC50 [1, 3] | DC50 [2, 4] | further results
1 | CC(C)CC(=O)N[C@@H](CCC(=O)O)C(=O)N[C@H](C(=O)N[C@@H](Cc1c[nH]cn1)C(=O)N[C@H](C(=O)N1CCC[C@H]1C(=O)N[C@H]1CSSC[C@@H](C(=O)N(C)[C@@H](CCCCNC(=O)COCCOCCNC(=O)COCCOCCNC(=O)[C@H](CN)NC(=O)CCCCCCCCCCCCCCCCC(=O)O)C(=O)N[C@H](CC(=O)N[C@@H](CCCN2CCOCC2)C(N)=O)Cc2ccccc2)NC1=O)C(c1ccccc1)c1ccccc1)[C@@H](C)O [compound 265] (Isovaleryl-ETH[Dip]PCC[NMeK]([AEEA-AEEA-Dap-C18 diacid])[β3hF][Nva(5-morpholino)]-NH2; disulfide 6-7) | 10 to 100 nM | 10 to 100 nM | 
2 | CC(C)CC(=O)N[C@@H](CCC(=O)O)C(=O)N[C@H](C(=O)N[C@@H](Cc1c[nH]cn1)C(=O)N[C@H](C(=O)N1CCC[C@H]1C(=O)N[C@H]1CSSC[C@@H](C(=O)N(C)[C@@H](CCCCNC(=O)COCCOCCNC(=O)COCCOCCNC(=O)[C@H](CN)NC(=O)CCCCCCCCCCCCCCCCC(=O)O)C(=O)N[C@H](C(=O)N[C@H](CCCCN)C(N)=O)C(c2ccccc2)c2ccccc2)NC1=O)C(c1ccccc1)c1ccccc1)[C@@H](C)O [compound 293] (Isovaleryl-ETH[Dip]PCC[NMeK]([AEEA-AEEA-Dap-C18 diacid])[Dip][dK]-NH2; disulfide 6-7) | 10 to 100 nM | 1 to 10 nM | 
3 | CC(C)CC(=O)N[C@@H](CC1N=NN=N1)C(=O)N[C@H](C(=O)N[C@@H](Cc1cnc[nH]1)C(=O)N[C@H](C(=O)N1CCC[C@H]1C(=O)N[C@H]1CSSC[C@@H](C(=O)N(C)[C@@H](CCCCNC(=O)COCCOCCNC(=O)COCCOCCNC(=O)[C@H](CN)NC(=O)CCCCCCCCCCCCCCCCC(=O)O)C(=O)N[C@H](CC(=O)N[C@H](CCCCN)C(N)=O)Cc2ccccc2)NC1=O)C(c1ccccc1)c1ccccc1)[C@@H](C)O [compound 288] (Isovaleryl-[X6]TH[Dip]PCC[NMeK]([AEEA-AEEA-Dap-C18 diacid])[β3hF][dK]-NH2; disulfide 6-7) | 10 to 100 nM | 10 to 100 nM | 
4 | CCCCCCCCCCCCCCCC(=O)NCCCCCC(=O)NCCCC[C@H]1C(=O)N[C@@H](C(c2ccccc2)c2ccccc2)C(=O)NCCNC(=O)CC[C@H](NC(=O)CC(C)C)C(=O)N[C@@H]([C@@H](C)O)C(=O)N[C@@H](Cc2c[nH]cn2)C(=O)N[C@@H](C(c2ccccc2)c2ccccc2)C(=O)N2CCC[C@H]2C(=O)N[C@H]2CSSC[C@H](NC2=O)C(=O)N1C [compound 161] (Isovaleryl-ETH[Dip]PCC[NMeK]([Ahx-Palmitoyl])[Dip]; linker 1-C via Ethylenediamine; disulfide 6-7) |  |  | IC50 [1, 5]: 10 to 100 nM; DC50 [2, 6]: 1 to 10 nM
5 | CC(C)CC(=O)N[C@@H](CCC(=O)O)C(=O)N[C@H](C(=O)N[C@@H](Cc1c[nH]cn1)C(=O)N[C@H](C(=O)N1CCC[C@H]1C(=O)N[C@H]1CSSC[C@@H](C(=O)N(C)[C@@H](CCCCNC(=O)COCCOCCNC(=O)COCCOCCNC(=O)[C@H](CN)NC(=O)CCCCCCCCCCCCCCCCC(=O)O)C(N)=O)NC1=O)C(c1ccccc1)c1ccccc1)[C@@H](C)O [compound 294] (Isovaleryl-ETH[Dip]PCC[NMeK]([AEEA-AEEA-Dap-C18 diacid])-NH2; disulfide 6-7) | 10 to 100 nM | 10 to 100 nM | 
6 | COC(=O)CC[C@H](NC(=O)CC(C)C)C(=O)N[C@H](C(=O)N[C@@H](Cc1c[nH]cn1)C(=O)N[C@H](C(=O)N1CCC[C@H]1C(=O)N[C@H]1CSSC[C@@H](C(=O)N[C@@H](CCCCNC(=O)COCCOCCNC(=O)COCCOCCNC(=O)[C@H](CN)NC(=O)CCCCCCCCCCCCCCCCC(=O)O)C(=O)N[C@H](CC(=O)N[C@H](CCCCN)C(N)=O)Cc2ccccc2)NC1=O)C(c1ccccc1)c1ccccc1)[C@@H](C)O [Compd ID 42, Isovaleric Acid-[Glu_OMe]-T-H-[Dpa]-P-[Cys]-[Cys]-[Lys(1PEG2_1PEG2_Dap_C18_Diacid)]-[bhPhe]-[(D)Lys]-NH2] (Isovaleryl-E(OMe)TH[Dip]PCCK([AEEA-AEEA-Dap-C18 diacid])[β3hF][dK]-NH2; disulfide 6-7) |  |  | IC50 ([1]; T47D cells, 0.5% mouse serum albumin, 1 hr incubation): 10 to 100 nM; DC50 ([2]; ferroportin-GFP HEK293 cells, at least 18 hours): 10 to 100 nM
7 | CC(C)CC(=O)N[C@@H](CCC(=O)O)C(=O)N[C@H](C(=O)N[C@@H](Cc1c[nH]cn1)C(=O)N[C@H](C(=O)N1CCC[C@H]1C(=O)N[C@H]1CSSC[C@@H](C(=O)N(C)[C@@H](CCCCNC(=O)COCCOCCNC(=O)COCCOCCNC(=O)[C@H](CN)NC(=O)CCCCCCCCCCCCCCCCC(=O)O)C(=O)N(C)[C@@H](Cc2ccccc2)C(=O)N[C@H](CCCCN)C(N)=O)NC1=O)C(c1ccccc1)c1ccccc1)[C@@H](C)O [compound 291] (Isovaleryl-ETH[Dip]PCC[NMeK]([AEEA-AEEA-Dap-C18 diacid])[NMeF][dK]-NH2; disulfide 6-7) | 10 to 100 nM | 10 to 100 nM | 
8 | CC[C@H](C)[C@@H](C(N)=O)N(C)C(=O)[C@@H](CCCCN)NC(=O)C[C@H](Cc1ccccc1)NC(=O)[C@H](CCCCNC(=O)COCCOCCNC(=O)COCCOCCNC(=O)[C@H](CN)NC(=O)CCCCCCCCCCCCCCCCC(=O)O)N(C)C(=O)[C@@H]1CSSC[C@H](NC(=O)[C@@H]2CCCN2C(=O)[C@@H](NC(=O)[C@H](Cc2c[nH]cn2)NC(=O)[C@@H](NC(=O)[C@H](CCC(=O)O)NC(=O)CC(C)C)[C@@H](C)O)C(c2ccccc2)c2ccccc2)C(=O)N1 [compound 262] (Isovaleryl-ETH[Dip]PCC[NMeK]([AEEA-AEEA-Dap-C18 diacid])[β3hF][dK][NMeI]-NH2; disulfide 6-7) | 10 to 100 nM | 10 to 100 nM | 
9 | CC(C)CC(=O)N[C@@H](CCC(=O)O)C(=O)N[C@H](C(=O)N[C@@H](Cc1cnc[nH]1)C(=O)N[C@H](C(=O)N1CCC[C@H]1C(=O)N[C@H]1CSSC[C@@H](C(=O)N(C)[C@@H](CCCCNC(=O)COCCOCCNC(=O)COCCOCCNC(=O)C[N+](C)(C)CCNC(=O)CCCCCCCCCCCCCCCCC(=O)O)C(=O)N[C@H](CC(=O)N[C@H](CCCCN)C(N)=O)Cc2ccccc2)NC1=O)C(c1ccccc1)c1ccccc1)[C@@H](C)O [compound 283] (Isovaleryl-ETH[Dip]PCC[NMeK]([AEEA-AEEA-X1])[β3hF][dK]-NH2; disulfide 6-7) | 10 to 100 nM | 10 to 100 nM | 
10 | C[C@@H](O)[C@H](NC(=O)[C@H](CCC(=O)O)NC(=O)Cc1ccc(F)cc1)C(=O)N[C@@H](Cc1c[nH]cn1)C(=O)N[C@H](C(=O)N1CCC[C@H]1C(=O)N[C@H]1CSSC[C@@H](C(=O)N(C)[C@@H](CCCCNC(=O)COCCOCCNC(=O)COCCOCCNC(=O)[C@H](CN)NC(=O)CCCCCCCCCCCCCCCCC(=O)O)C(=O)N[C@H](CC(=O)N[C@H](CCCCN)C(N)=O)Cc2ccccc2)NC1=O)C(c1ccccc1)c1ccccc1 [compound 298] ({Phenylacetyl(4-F)}-ETH[Dip]PCC[NMeK]([AEEA-AEEA-Dap-C18 diacid])[β3hF][dK]-NH2; disulfide 6-7) | 10 to 100 nM | 10 to 100 nM | 
11 | COC(=O)CC[C@H](NC(=O)CC(C)C)C(=O)N[C@H](C(=O)N[C@@H](Cc1c[nH]cn1)C(=O)N[C@H](C(=O)N1CCC[C@H]1C(=O)N[C@H]1CSSC[C@@H](C(=O)N(C)[C@@H](CCCCNC(=O)CCCCCNC(=O)C[N+](C)(C)CCNC(=O)CCCCCCCCCCCCCCCCC(=O)O)C(=O)N[C@H](C(=O)N[C@H](CCCCN)C(N)=O)C(c2ccccc2)c2ccccc2)NC1=O)C(c1ccccc1)c1ccccc1)[C@@H](C)OC [compound 147] (Isovaleryl-E(OMe)T(Me)H[Dip]PCC[NMeK]([Ahx-X1])[Dip][dK]-NH2; disulfide 6-7) |  |  | IC50 [1, 5]: 100 to 500 nM; DC50 [2, 6]: 10 to 100 nM
12 | CC(C)CC(=O)N[C@@H](CCC(=O)O)C(=O)N[C@H](C(=O)N[C@@H](Cc1cnc[nH]1)C(=O)N[C@H](C(=O)N1CCC[C@H]1C(=O)N[C@H]1CSSC[C@@H](C(=O)N(C)[C@@H](CCCCNC(=O)COCCOCCNC(=O)COCCOCCNC(=O)[C@H](CN)NC(=O)CCCCCCCCCCCCCCCCC(=O)O)C(=O)N[C@H](CC(=O)N[C@H](CCCCN)C(=O)N(C)[C@H](Cc2ccccc2)C(N)=O)Cc2ccccc2)NC1=O)C(c1ccccc1)c1ccccc1)[C@@H](C)O [compound 250] (Isovaleryl-ETH[Dip]PCC[NMeK]([AEEA-AEEA-Dap-C18 diacid])[β3hF][dK][dNMeF]-NH2; disulfide 6-7) | 1 to 10 nM | 10 to 100 nM | 
